In publication PMC11314343, “Improving the Solubility, Stability, and Bioavailability of Albendazole through Synthetic Salts” (Molecules, 2024):
Values after ≈ are worked out from the molar mass of the structure shown.

Assays:
[1] = Accelerated stability testing; type: physicochemical; conditions: for stability under accelerated test conditions: 40 °C/75 ± 5% RH; for PXRD spectra under accelerated stability conditions: 40 ± 2 °C/75 ± 5% RH, 0, 3, 6 months
Method: Accelerated testing was utilized to contrast the stability of ABZ and its salts in the solid state. The solid variations were placed in an airtight container at 40 ± 2 °C with a humidity level of 75 ± 5% RH, and specimens were harvested at the intervals of 0, 3, and 6 months. PXRD analysis was used to ascertain whether there were any substantial alterations in dissolution properties and the crystal structure of the sample.

[2] = Dynamic vapor sorption (DVS), moisture adsorption isotherms; type: physicochemical; conditions: for water adsorption: 25 °C, at 90% RH
Method: The moisture sorption characteristics of all specimens were assessed at a temperature of 25 °C using an automated dynamic vapor sorption analyzer (Surface Measurement Systems, Wembley, UK). Prior to the sorption examination, the samples were equilibrated at a humidity level of 0% relative humidity (RH) to remove any adsorbed moisture. The specimens underwent a gradual variation in relative humidity, transitioning from 0 to 90% RH at intervals of 10% RH. Humidity was adjusted by increasing it by +10% RH after 6 h or upon achieving the equilibrium condition. The equilibrium condition was met when there was a <0.002% change in mass per minute within a span of 10 min. Upon completion of the sorption sequence, all samples were subjected to drying at 0% RH, which was stopped when the Δm/Δt was less than 0.002%/min within 10 min.

[3] = Pharmacokinetic comparison in Wistar rats after oral administration
Method: In vivo pharmacokinetic examination of albendazole and albendazole salts was performed in a half-male and half-female group of Wistar rats (n = 6), with an average body weight of 200 ± 20 g. The rats were fasted for one night before administration of albendazole at a dose of 25 mg/kg by gavage. Blood sampling was conducted by placing a jugular vein catheter surgically the day before administration. […] The tubes were centrifuged at 13,000× g for 10 min, and the upper plasma was collected and stored in an ultra-low-temperature freezer at −80 °C. Samples were processed by obtaining 100 μL of plasma; then, 400 μL of methanol was added, the samples were vortexed for 1 min, and they were centrifuged at 13,000× g for 5 min. Finally, 300 μL of the supernatant was obtained. A mixture of 6 μL of 10 μG/mL toluidazole internal standard solution was added to the supernatant. After 1 min of vortexing, the samples were centrifuged at 13,000× g for 5 min. The supernatant was then filtered through a microporous filter membrane before employing UPLC-HR-ESI-MS to assess the drug content.
The plasma concentrations of ABZ were assessed using a Dionex Ultimate 3000 RSLC system (Thermo Fisher, Waltham, MA, USA) equipped with an ACQUITY UPLC BEH C18 Column (130 Å, 150 mm × 2.1 mm × 2.6 μm) at a column temperature of 30 ± 1 °C. […] The MS analysis was conducted using a Q-Orbitrap MS coupled with heated electrospray ionization (HESI, Washington, DC, USA). The MS analysis was performed in full MS-ddMS^2 mode, with damping gas in the C-trap and nitrogen used to stabilize the spray. The auxiliary gas heater and capillary temperatures were established and maintained at 350 °C and 320 °C, respectively. In the negative mode, a spray voltage of 3.0 kV and an S-lens RF level of 60 V were employed. The full MS-ddMS^2 scan range was from 150.0000 to 1000.0000 m/z, and the precise molecular weight […] was employed for qualitative analysis. The corresponding peak area was utilized for quantitative analysis, and the MS^2 fragments were employed in further qualitative analysis.
The pharmacokinetic parameters were examined through non-compartment model analysis using DAS 2.0.

[4] = Intrinsic dissolution rate (IDR); type: physicochemical; conditions: 37 °C
Method: The powdered sample (140 mg) was measured and compacted to a tablet hardness of 5 Kg by a tester, employing a small manual tablet press. […] Then, 0.3 mL of the solution was withdrawn, at 1 min intervals, and subsequently subjected to centrifugation (15,000 rpm, 3 min). Afterward, it was subjected to double dilution with methanol and analyzed for the presence of the drug using HPLC.

[5] = Solid-state stability, influencing factor testing (strong light, high humidity, elevated temperature); type: physicochemical; conditions: for stability under influencing factor conditions: 4500 ± 500 lux; for stability under influencing factor conditions / crystal transformation (PXRD): 92.5 ± 5% RH, 50 ± 2 °C; for crystal transformation (PXRD): strong light 4500 ± 500 lux, 0, 5, 10 days; for change of IDR on the 5th and 10th days compared to day 0: strong light, high humidity and high temperature
Method: Influencing factor testing included a strong light irradiation test, a high-humidity test, and an elevated temperature test. The strong light irradiation test involved placement of the sample opening under a light with an intensity of 4500 ± 500 lux. The high-humidity test involved placement of the sample in a constant-humidity container at 25 °C and 92.5% RH (saturated potassium nitrate solution). The high-temperature test involved placing the sample in a DHG-9070A constant-temperature oven (Shanghai Yiheng Technology Instrument Co., Ltd., Shanghai, China), set at 50 °C. Samples were taken on the 0th, 5th, and 10th days, and the crystal structure and dissolution of the samples were assessed for significant differences based on PXRD and IDR, as outlined above.

[6] = design: method as in PMID 18938096; conditions: cited from earlier work
[7] = water at 25 °C; cited from earlier work
[8] = design: method as in PMID 12527162; conditions: cited from earlier work
[9] = Wistar rats, oral 25 mg/kg, plasma ABZ
[10] = both, Wistar, rat, plasma, po, 25 mg/kg

| SMILES | stability under accelerated test conditions [1] | PXRD spectra under accelerated stability conditions [1] | water adsorption [2] [%] | Cmax increase compared to ABZ ([3]; Wistar rats, oral 25 mg/kg) | MRT(0–24) ([3]; Wistar rats, oral 25 mg/kg) [h] | MRT(0–∞) ([3]; Wistar rats, oral 25 mg/kg) [h] | T1/2 ([3]; Wistar rats, oral 25 mg/kg) [h] | Tmax ([3]; Wistar rats, oral 25 mg/kg) [h] | AUC(0–24) [3, 9] [ng/mL/h] | AUC(0–∞) [3, 9] [ng/mL/h] | Cmax [3, 9] [ng/mL] | IDR ([4]; pH 2 buffer) [mg·cm^−2·min^−1] | IDR ([4]; pH 7.4 buffer) [mg·cm^−2·min^−1] | stability under influencing factor conditions [5] | crystal transformation (PXRD) [5] | change of IDR on the 5th and 10th days compared to day 0 [5] | further results |
| --- | --- | --- | --- | --- | --- | --- | --- | --- | --- | --- | --- | --- | --- | --- | --- | --- | --- |
| CCCSc1ccc2[nH]c(NC(=O)OC)nc2c1.O=C(O)C=CC(=O)O [ABZ-FMA, albendazole fumarate] | remained stable for 6 months | unchanged | 6.72 | approximately 3.8 times | 6.41 ± 0.66 | 17.53 ± 15.90 | 14.07 ± 14.37 | 1.67 ± 1.17 | 1205.56 ± 855.61 | 1975.42 ± 1856.96 | 260.58 ± 179.73 | 0.0328 | 0.0009 | remained stable for 10 days | not observed | no statistically significant difference |  |
| CCCSc1ccc2[nH]c(NC(=O)OC)nc2c1.O=C(O)C(O)C(O)C(=O)O [ABZ-DTA, albendazole D-tartrate] | remained stable for 6 months | unchanged | 70.15 | ~4.6 times | 6.67 ± 0.61 | 8.92 ± 1.51 | 6.11 ± 1.21 | 1.25 ± 0.61 | 1835.37 ± 379.84 | 1955.94 ± 431.79 | 322.68 ± 68.67 | 0.0730 | 0.0008 | remained stable for 10 days | not observed | no statistically significant difference | weight increase by water adsorption ([2]; sharp increase when the RH reached 60%): 47.59% |
| CCCSc1ccc2[nH]c(NC(=O)OC)nc2c1.Cl [ABZ-HCl, albendazole hydrochloride] | remained stable for 6 months | unchanged | 37.65 | ~6.9 times | 7.66 ± 2.08 | 24.65 ± 33.76 | 16.85 ± 23.17 | 1.21 ± 0.68 | 3089.28 ± 1228.16 | 5371.96 ± 4618.85 | 478.96 ± 138.62 | 0.1128 | 0.0041 | remained stable for 10 days | not observed | no statistically significant difference |  |
| CCCSc1ccc2nc(NC(=O)OC)[nH]c2c1 [ABZ, Albendazole] |  |  | 3.86 |  |  |  |  |  |  |  |  | 0.0096 | 0.0004 |  |  |  | half-life ([3]; both, Wistar, rat, in vivo, po, 25 mg/kg): 5.98 ± 3.27 h; AUC(0-inf) [3, 10]: 374 ± 136 ng·h/mL; AUC(0-t) [3, 10]: 352 ± 147 ng·h/mL; Cmax [3, 10]: 69.6 ± 51.7 ng/mL; MRT inf [3, 10]: 9.19 ± 5.1 h; MRT last [3, 10]: 7.07 ± 2.27 h; Tmax [3, 10]: 2.54 ± 1.57 h; oral bioavailability in humans [6]: less than 5%; solubility in water [7]: 22.8 µg/mL (≈ 85.9 µM); change of IDR after being placed at 50 °C ([5]; 50 °C, 5 and 10 days vs day 0): increased; log P [8]: 2.54 |
